Source: US8476197B2, “Aminopropenoates as fungicides” (priority 2009, dated 2013)
Like-named read-outs stand apart in the source and are kept apart here. Marks after values point to notes of the source that are not given here.

Structure (SMILES) | Log P (pH 2.7) | Log P (pH 7.5)
CCOC(=O)C(C#N)=C(NC(C)Cc1c[nH]c2ccccc12)c1sccc1C(F)(F)F (stereo not shown) [Compound 108] | 3.94^[a] | –
COC(=O)C(C#N)=C(NC(C)c1cccnc1)c1cccnc1Cl (stereo not shown) [Compound 109] | 0.82^[a] | –
COC(=O)C(C#N)=C(NC(C)c1ccccn1)c1cccnc1Cl (stereo not shown) [Compound 110] | 1.99^[a] | –
CCOC(=O)C(C#N)=C(NC(C)c1nc(C)c(C)s1)c1ccsc1Br (stereo not shown) [Compound 112] | 3.7^[a] | –
CCOC(=O)C(C#N)=C(NC(C)Cc1cc2ccccc2[nH]1)c1c(C)nn(C)c1Cl (stereo not shown) [Compound 113] | 3.24^[a] | –
CCOC(=O)C(C#N)=C(NCc1ccccn1)c1ccsc1Br [Compound 115] | 2.53^[a] | –
CCOC(=O)C(C#N)=C(NC(C)c1ccccn1)c1ccsc1Br (stereo not shown) [Compound 116] | 3.1^[a] | –
CCOC(=O)C(C#N)=C(NC(C)C1CCCO1)c1cc(C)oc1C (stereo not shown) [Compound 118] | 3.27^[a] | –
CCOC(=O)C(C#N)=C(NC1CCCCNC1=O)c1cc(C)oc1C (stereo not shown) [Compound 119] | 2.14^[a] | –
COC(=O)C(C#N)=C(NC1COC1)c1cccnc1Cl [Compound 120] | 1.35^[a] | –
COC(=O)C(C#N)=C(NC(CN1CCOCC1)C1CC1)c1cccnc1Cl (stereo not shown) [Compound 121] | 1.38^[a] | –
COC(=O)C(C#N)=C(NC1CSC1)c1cccnc1Cl [Compound 122] | 2.08^[a] | –
COC(=O)C(C#N)=C(NC1CCCCNC1=O)c1cccnc1Cl (stereo not shown) [Compound 123] | 1.57^[a] | –
COC(=O)C(C#N)=C(NC(C)c1ncc(Br)cc1Cl)c1cccnc1Cl (stereo not shown) [Compound 124] | 3.24^[a] | –
COC(=O)C(C#N)=C(NC1CCS(=O)(=O)C1)c1cccnc1Cl (stereo not shown) [Compound 125] | 1.33^[a] | –
COC(=O)C(C#N)=C(NC(C)C1CCCO1)c1cccnc1Cl (stereo not shown) [Compound 126] | 2.17^[a] | –
CCOC(=O)C(C#N)=C(NC(C)Cn1nc(C(F)(F)C(F)(F)F)nc1SC)c1cccnc1Cl (stereo not shown) [Compound 127] | – | 3.66
COC(=O)C(C#N)=C(NCc1nccs1)c1sc(C)nc1C(F)(F)F [Compound 132] | 2.33^[a] | –
COC(=O)C(C#N)=C(NCc1ccccn1)c1sc(C)nc1C(F)(F)F [Compound 134] | 2.37^[a] | –
CCOC(=O)C(C#N)=C(NCc1nccs1)c1cn(C)nc1C(F)(F)F [Compound 138] | 2.43^[a] | –
CCOC(=O)C(C#N)=C(NCc1ccccn1)c1cn(C)nc1C(F)(F)F [Compound 139] | 2.36^[a] | –
CCOC(=O)C(C#N)=C(NCc1nccs1)c1sc(C)nc1C(F)(F)F [Compound 141] | 2.66^[a] | –

Structure (SMILES) | Log P (pH 2.7) | Log P (pH 7.5)
CCOC(=O)C(C#N)=C(NCc1ccccn1)c1sc(C)nc1C(F)(F)F [Compound 144] | 2.7^[a] | –
CCOC(=O)/C(C#N)=C(\NC(C)c1nccs1)c1sccc1Cl (stereo not shown) [Compound 149] | 3.09^[a] | –
CCOC(=O)/C(C#N)=C(\NC(C)c1nc(C)c(C)s1)c1sccc1Cl (stereo not shown) [Compound 150] | 3.76^[a] | –
CCOC(=O)/C(C#N)=C(\NC(C)Cc1c[nH]c2ccccc12)c1sccc1Cl (stereo not shown) [Compound 151] | 3.8^[a] | –
CCOC(=O)/C(C#N)=C(\NCc1nccs1)c1sccc1Cl [Compound 153] | 2.63^[a] | –
CCOC(=O)C(C#N)=C(NCc1ccccn1)c1c(C(F)F)nn(C)c1Cl [Compound 155] | 2.37^[a] | –
CCOC(=O)C(C#N)=C(NCc1ccccn1)c1sccc1Cl [Compound 159] | 2.56^[a] | –
CCOC(=O)C(C#N)=C(NCc1nccs1)c1ccsc1I [Compound 161] | 2.68^[a] | –
CCOC(=O)C(C#N)=C(NCc1ccccn1)c1ccsc1I [Compound 166] | 2.56^[a] | –
CCOC(=O)C(C#N)=C(NCc1nc2ccccc2s1)c1sccc1Br [Compound 170] | 3.53^[a] | –
CCOC(=O)C(C#N)=C(NCc1nc(C(F)(F)F)cs1)c1sccc1Br [Compound 171] | 3.37^[a] | –
CCOC(=O)C(C#N)=C(NCc1nc(C)cs1)c1sccc1C(F)(F)F [Compound 175] | 3.11^[a] | –
CCOC(=O)C(C#N)=C(NCc1nc2ccccc2s1)c1sccc1C(F)(F)F [Compound 176] | 3.67^[a] | –
CCOC(=O)C(C#N)=C(NCc1nc(C(F)(F)F)cs1)c1sccc1C(F)(F)F [Compound 177] | 3.51^[a] | –
COC(=O)C(C#N)=C(NCc1nc(C)cs1)c1sc(C)nc1C(F)(F)F [Compound 181] | 2.58^[a] | –
COC(=O)C(C#N)=C(NCc1ncc(C)s1)c1sc(C)nc1C(F)(F)F [Compound 183] | 2.63^[a] | –
COC(=O)C(C#N)=C(NCc1nc2ccccc2s1)c1sc(C)nc1C(F)(F)F [Compound 184] | 3.15^[a] | –
COC(=O)C(C#N)=C(NCc1nc(C(F)(F)F)cs1)c1sc(C)nc1C(F)(F)F [Compound 185] | 3.06^[a] | –
CCOC(=O)C(C#N)=C(NC(C)c1nc(C)cs1)c1cn(C)nc1C(F)F (stereo not shown) [Compound 188] | 2.65^[a] | –
CCOC(=O)C(C#N)=C(NCc1nc(C)cs1)c1cn(C)nc1C(F)F [Compound 189] | 2.3^[a] | –
CCOC(=O)C(C#N)=C(NC(C)c1ncc(C)s1)c1cn(C)nc1C(F)F (stereo not shown) [Compound 190] | 2.68^[a] | –
CCOC(=O)C(C#N)=C(NCc1nc2ccccc2s1)c1cn(C)nc1C(F)F [Compound 191] | 2.82^[a] | –

Structure (SMILES) | Log P (pH 2.7) | Log P (pH 7.5)
CCOC(=O)C(C#N)=C(NCc1nc(C(F)(F)F)cs1)c1cn(C)nc1C(F)F [Compound 192] | 2.78^[a] | –
CCOC(=O)C(C#N)=C(NC(C)C1CCCO1)c1sc(C)nc1C(F)(F)F (stereo not shown) [Compound 193] | 3.29^[a] | –
CCOC(=O)C(C#N)=C(NC(C)c1nc(C)cs1)c1sc(C)nc1C(F)(F)F (stereo not shown) [Compound 194] | 3.42^[a] | –
CCOC(=O)C(C#N)=C(NCc1nc(C)cs1)c1sc(C)nc1C(F)(F)F [Compound 195] | 2.9^[a] | –
CCOC(=O)C(C#N)=C(NC(C)c1ncc(C)s1)c1sc(C)nc1C(F)(F)F (stereo not shown) [Compound 196] | 3.46^[a] | –
CCOC(=O)C(C#N)=C(NCc1nc2ccccc2s1)c1sc(C)nc1C(F)(F)F [Compound 197] | 3.48^[a] | –
CCOC(=O)C(C#N)=C(NCc1nc(C(F)(F)F)cs1)c1sc(C)nc1C(F)(F)F [Compound 198] | 3.35^[a] | –
CCOC(=O)C(C#N)=C(NC(C)C1CCCO1)c1cn(C)nc1C(F)F (stereo not shown) [Compound 199] | 2.58^[a] | –
CCOC(=O)C(C#N)=C(NCc1ccc(F)cn1)c1sccc1Br [Compound 200] | 3.04^[a] | –
CCOC(=O)C(C#N)=C(NCc1ccc(F)cn1)c1sccc1C(F)(F)F [Compound 201] | 3.19^[a] | –
COC(=O)C(C#N)=C(NCc1ccc(F)cn1)c1sc(C)nc1C(F)(F)F [Compound 202] | 2.67^[a] | –
CCOC(=O)C(C#N)=C(NCc1ccc(F)cn1)c1cn(C)nc1C(F)F [Compound 203] | 2.33^[a] | –
CCOC(=O)C(C#N)=C(NCc1ccc(F)cn1)c1sc(C)nc1C(F)(F)F [Compound 204] | 2.98^[a] | –
C=CCOC(=O)C(C#N)=C(NC(C)c1nccs1)c1sccc1Br (stereo not shown) [Compound 205] | 3.31^[a] | –
CCOC(=O)C(C#N)=C(NC(C)c1nccs1)c1nc(Cl)ccc1Cl (stereo not shown) [Compound 208] | 3.02^[a] | –
CCOC(=O)C(C#N)=C(NC(C)c1cccs1)c1sccc1C(F)(F)F (stereo not shown) [Compound 209] | 3.99^[a] | –
COC(=O)C(C#N)=C(NC(C)c1cccs1)c1sc(C)nc1C(F)(F)F (stereo not shown) [Compound 210] | 3.46^[a] | –
CCOC(=O)C(C#N)=C(NC(C)c1cccs1)c1sccc1Br (stereo not shown) [Compound 211] | 3.92^[a] | –
CCOC(=O)C(C#N)=C(NC(C)c1cccs1)c1sc(C)nc1C(F)(F)F (stereo not shown) [Compound 212] | 3.8^[a] | –
CCOC(=O)C(C#N)=C(NC(C)c1cccs1)c1cn(C)nc1C(F)F (stereo not shown) [Compound 213] | 3.02^[a] | –
CC(C)NC(=O)C(C#N)=C(NC(C)c1nccs1)c1sccc1Br (stereo not shown) [Compound 214] | 3.11^[a] | –
CCOC(=O)C(C#N)=C(NC(C)c1sc(C)nc1C)c1sccc1Br (stereo not shown) [Compound 215] | 3.23^[a] | –

Structure (SMILES) | Log P (pH 2.7) | Log P (pH 7.5)
CCOC(=O)C(C#N)=C(NC(C)c1ncc(C)s1)c1sccc1C(F)(F)F (stereo not shown) [Compound 216] | 3.67^[a] | –
CCOC(=O)C(C#N)=C(NCc1ncc(C)s1)c1sccc1C(F)(F)F [Compound 217] | 3.19^[a] | –
CCOC(=O)C(C#N)=C(NC(C)c1sc(C)nc1C)c1sc(C)nc1C(F)(F)F (stereo not shown) [Compound 218] | 3.13^[a] | –
CCOC(=O)C(C#N)=C(NCc1ncc(C)s1)c1sc(C)nc1C(F)(F)F [Compound 219] | 3^[a] | –
CCOC(=O)C(C#N)=C(NCc1ncc(C)s1)c1sccc1Br [Compound 220] | 3.04^[a] | –
CCOC(=O)C(C#N)=C(NCc1nccs1)c1nc(Cl)ccc1Cl [Compound 226] | 2.6^[a] | –
CCOC(=O)C(C#N)=C(NCc1nccs1)c1cnc(Cl)cc1Cl [Compound 227] | 2.68^[a] | –
CCOC(=O)C(C#N)=C(NCc1nccs1)c1ncc(Cl)cc1Cl [Compound 228] | 2.7^[a] | –
CCOC(=O)C(C#N)=C(NCc1nccs1)c1c(C(F)F)nn(C)c1Cl [Compound 236] | 2.4^[a] | –
CCOC(=O)C(C#N)=C(NC(C)c1nc(C(=O)OCC)cs1)c1cccnc1Cl (stereo not shown) [Compound 241] | – | 2.7
CCOC(=O)C(C#N)=C(NC(C)c1nc(C(=O)O)cs1)c1cccnc1Cl (stereo not shown) [Compound 244] | – | 1.1
CCOC(=O)C(C#N)=C(NCc1nc(C)cs1)c1ccsc1Br [Compound 246] | 2.94^[a] | –
CCOC(=O)C(C#N)=C(NCc1ncc(C)s1)c1ccsc1Br [Compound 247] | 3^[a] | –
CCOC(=O)C(C#N)=C(NCc1nc2ccccc2s1)c1ccsc1Br [Compound 248] | 3.55^[a] | –
CCOC(=O)C(C#N)=C(NCc1nc(C(F)(F)F)cs1)c1ccsc1Br [Compound 249] | 3.42^[a] | –
CCOC(=O)C(C#N)=C(NCc1ccc(F)cn1)c1ccsc1Br [Compound 251] | 3.04^[a] | –
CCOC(=O)C(C#N)=C(NCc1nccs1)c1ccncc1Cl [Compound 259] | 2.11^[a] | –
CCOC(=O)C(C#N)=C(NCc1nccs1)c1cnccc1C(F)(F)F [Compound 272] | 2.4^[a] | –
CCOC(=O)C(C#N)=C(NC1(c2ccccn2)CC1)c1cccnc1Cl [Compound 284] | 2.56^[a] | –
